Measured values reported in BigSolDB 2.1.

Cc1cccc(N(C)C(=S)Oc2ccc3ccccc3c2)c1
solubility (mole fraction)
Settings | in acetic acid | in ethanol | in ethylene glycol | in isobutanol | in isopropanol | in methanol | in n-butanol | in n-octanol | in n-propanol | in propylene glycol
283.15 K | 0.00186 | 0.000558 | 5.01e-05 | 0.000544 | 0.000365 | 0.000402 | 0.00082 | 0.00145 | 0.000679 | 0.000155
288.15 K | 0.00249 | 0.000765 | 5.88e-05 | 0.000734 | 0.00054 | 0.0005 | 0.00115 | 0.00189 | 0.00104 | 0.000214
293.15 K | 0.00307 | 0.000957 | 7.5e-05 | 0.000933 | 0.000731 | 0.000691 | 0.00154 | 0.00251 | 0.00136 | 0.000264
298.15 K | 0.00359 | 0.00125 | 8.76e-05 | 0.00137 | 0.000965 | 0.000843 | 0.00207 | 0.00311 | 0.00171 | 0.000335
303.15 K | 0.0045 | 0.00161 | 0.000107 | 0.00174 | 0.00125 | 0.00102 | 0.00264 | 0.004 | 0.00218 | 0.000413
308.15 K | 0.00574 | 0.00196 | 0.000129 | 0.0025 | 0.00168 | 0.00119 | 0.00345 | 0.00526 | 0.00286 | 0.000542
313.15 K | 0.00779 | 0.00241 | 0.000156 | 0.00316 | 0.00225 | 0.00149 | 0.00448 | 0.00708 | 0.00351 | 0.00068
318.15 K | 0.00993 | 0.00287 | 0.000201 | 0.00409 | 0.00273 | 0.00181 | 0.00568 | 0.00896 | 0.00451 | 0.000785
323.15 K | 0.0127 | 0.00365 | 0.000258 | 0.00544 | 0.00357 | 0.00224 | 0.0076 | 0.0115 | 0.00606 | 0.000953
328.15 K | 0.0156 | 0.00448 | 0.00031 | 0.00705 | 0.00437 | 0.00267 | 0.0097 | 0.0148 | 0.00772 | 0.00125
